# Measurements taken from patent US5591613A, “Method for the preparation of D-arginine and L-ornithine” (Degussa Aktiengesellschaft, priority 1990, dated 1997).
# Key:
# arginase = settings: literature value; cited from earlier work
# Calf liver arginase [1] = biological target: T1, Calf liver arginase (Bos taurus, UniProt Q2KJ64); experiment: Arginase-catalysed hydrolysis of L-Arg to L-Orn, initial rates in batch, with and without inhibitors; assay type: biochemical; settings: for Vo Arginase / conversion after 2 hrs.: 0.75 M L-Arg; for Vo Arginase / conversion after 2 hrs. / conversion (%) after 1.0 hrs / conversion (%) after 1.5 hrs / conversion (%) after 2.0 hrs / ro, arginase: starting pH 11.5; for conversion (%) after 1.0 hrs / conversion (%) after 1.5 hrs / conversion (%) after 2.0 hrs / ro, arginase: 0.5 M L-Arg; for ro, arginase %: relative to 100:0; for kind of inhibition / substrate behaviour: from conversion-time profiles (FIG. 3)
# T1 construct: purchased Boehringer Mannheim (Mannheim, F.R.G.)
# T1 sequence (Q2KJ64 1-322): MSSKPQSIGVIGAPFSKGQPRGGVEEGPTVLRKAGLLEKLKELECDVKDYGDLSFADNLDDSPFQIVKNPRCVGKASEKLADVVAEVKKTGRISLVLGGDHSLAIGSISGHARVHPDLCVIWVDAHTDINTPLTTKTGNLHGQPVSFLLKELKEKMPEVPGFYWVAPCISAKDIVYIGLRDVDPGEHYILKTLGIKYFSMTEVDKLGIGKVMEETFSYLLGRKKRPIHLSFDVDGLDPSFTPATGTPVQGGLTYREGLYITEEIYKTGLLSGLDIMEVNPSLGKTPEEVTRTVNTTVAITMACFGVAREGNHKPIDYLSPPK
# Method: In further experiments, the materials used were: Calf liver arginase (activity 110 U/mg) which was obtained from Boehringer Mannheim (Mannheim, F.R.G.). Amino acids were from Rexim (Ham, France). MnSO4, MnO2, and ascorbic acid were from E. Merck (Darmstadt, F.R.G.).
# (§1) Batch conditions used were: Starting pH value, except for the activity-pH curve, was either 11.5, the natural value for L-Arg in water, or 9.5, adjusted from pH 11.5 with conc. HCl. The temperature was 25° C. unless otherwise noted. Typical concentrations of L-Arg were 0.75M. Unless otherwise mentioned, [Mn2^+ ]=5-10^-4 M. Reaction progress was followed by HPLC (amino column, mobile phase: phosphate buffer (pH 6.4)/acetonitrile).
# Kinetic data was obtained as follows: Initial rate data were analyzed by a non-linear regression method (Marquardt routine) with the program OPTI (U. Giesecke, KFA J ulich).
# A linear slope of 1/[S] vs. [I] plot distinguishes a purely competitive inhibition mechanism from a partially competitive one. Simultaneously, the apparent and the intrinsic KM -value are proportional to [I] according to equation (5) from which the inhibition constant KI can be calculated
# Since the runs have been conducted at [LArg]=50 mM=2·Km,intr,Vo =Vmax ·2·KM,intr /(KM,intr (3+[I]/KI))=Vmax ·2/(3+[I]/KI). At [I]=KI, Vo =Vmax 2/(3+1)=Vmax /2. So, KI can be calcuated with sufficient accuracy from a Vo vs. [I] plot such as FIG. 4. […] In this work, however, maximum product concentration was sought for optimal space-time-yield and work-up efficiency.
# ox liver arginase = settings: literature; cited from earlier work
# Calf liver arginase [2] = biological target: T1, Calf liver arginase; experiment: Activation of arginase by Mn2+ ions; assay type: biochemical
# Method: as §1
# Activation by Mn^2+ ions and MnO2 precipitation: An optimum concentration of the activator Mn^2+ of 0.5 mM was found. At the prevalent alkaline pH values, MnO2 from the oxidation of Mn^2+ precipitates. To suppress oxidation, ascorbic acid was added as an reducing agent.
structure (smiles),measurement,setting,value
"NCCCC[C@H](N)C(=O)O [L-Lys, reference compound]",Ki,arginase,1300 µM
same,Vo Arginase,Calf liver arginase [1]; inhibitor 0.1 M,0.129 mol/L/h
same,conversion after 2 hrs.,Calf liver arginase [1]; inhibitor 0.1 M,34.3%
same,Vo Arginase,Calf liver arginase [1]; inhibitor 0.2 M,0.120 mol/L/h
same,conversion after 2 hrs.,Calf liver arginase [1]; inhibitor 0.2 M,32.1%
same,Vo Arginase,Calf liver arginase [1]; inhibitor 0.4 M,0.086 mol/L/h
same,conversion after 2 hrs.,Calf liver arginase [1]; inhibitor 0.4 M,22.9%
same,Vo Arginase,Calf liver arginase [1]; inhibitor 0.5 M,0.075 mol/L/h
same,conversion after 2 hrs.,Calf liver arginase [1]; inhibitor 0.5 M,19.9%
same,Vo Arginase,Calf liver arginase [1]; inhibitor 0.75 M,0.066 mol/L/h
same,conversion after 2 hrs.,Calf liver arginase [1]; inhibitor 0.75 M,17.5%
same,activity at 100000 µM,Calf liver arginase [1]; read-out: Vo Arginase (%),85.3%
same,activity at 200000 µM,Calf liver arginase [1]; read-out: Vo Arginase (%),79.9%
same,activity at 400000 µM,Calf liver arginase [1]; read-out: Vo Arginase (%),57%
same,activity at 500000 µM,Calf liver arginase [1]; read-out: Vo Arginase (%),49.5%
same,activity at 750000 µM,Calf liver arginase [1]; read-out: Vo Arginase (%),43.5%
"NCCC[C@H](N)C(=O)O [L-Orn, L-ornithine]",Ki,arginase,1300 µM
"N=C(N)NCCC[C@@H](N)C(=O)O [D-Arg, D-arginine]",conversion (%) after 1.0 hrs,Calf liver arginase [1]; Ratio L/D-Arg 50:50 (DL),15.6%
same,conversion (%) after 1.5 hrs,Calf liver arginase [1]; Ratio L/D-Arg 50:50 (DL),19.4%
same,conversion (%) after 2.0 hrs,Calf liver arginase [1]; Ratio L/D-Arg 50:50 (DL),26.4%
same,"ro, arginase",Calf liver arginase [1]; Ratio L/D-Arg 50:50 (DL),0.097 mol/L/h
same,"ro, arginase %",Calf liver arginase [1]; Ratio L/D-Arg 50:50 (DL),59.5%
same,conversion (%) after 1.0 hrs,Calf liver arginase [1]; Ratio L/D-Arg 60:40,22.2%
same,conversion (%) after 1.5 hrs,Calf liver arginase [1]; Ratio L/D-Arg 60:40,32.2%
same,conversion (%) after 2.0 hrs,Calf liver arginase [1]; Ratio L/D-Arg 60:40,35.4%
same,"ro, arginase",Calf liver arginase [1]; Ratio L/D-Arg 60:40,0.1376 mol/L/h
same,"ro, arginase %",Calf liver arginase [1]; Ratio L/D-Arg 60:40,73.6%
same,conversion (%) after 1.0 hrs,Calf liver arginase [1]; Ratio L/D-Arg 70:30,24.6%
same,conversion (%) after 1.5 hrs,Calf liver arginase [1]; Ratio L/D-Arg 70:30,31.8%
same,conversion (%) after 2.0 hrs,Calf liver arginase [1]; Ratio L/D-Arg 70:30,35.4%
same,"ro, arginase",Calf liver arginase [1]; Ratio L/D-Arg 70:30,0.1380 mol/L/h
same,"ro, arginase %",Calf liver arginase [1]; Ratio L/D-Arg 70:30,73.8%
same,conversion (%) after 1.0 hrs,Calf liver arginase [1]; Ratio L/D-Arg 85:15,25.1%
same,conversion (%) after 1.5 hrs,Calf liver arginase [1]; Ratio L/D-Arg 85:15,34.8%
same,conversion (%) after 2.0 hrs,Calf liver arginase [1]; Ratio L/D-Arg 85:15,40.2%
same,"ro, arginase",Calf liver arginase [1]; Ratio L/D-Arg 85:15,0.150 mol/L/h
same,"ro, arginase %",Calf liver arginase [1]; Ratio L/D-Arg 85:15,80.3%
same,kind of inhibition / substrate behaviour,Calf liver arginase [1],neither a substrate of arginase nor a non-competitive inhibitor
"N=C(N)NCCC[C@H](N)C(=O)O [L-Arg, L-arginine]",Km,arginase,4 mM
same,Km,ox liver arginase,29 mM
same,kind of inhibition / substrate behaviour,Calf liver arginase [1],not a substrate inhibitor
same,Vmax,Calf liver arginase [1]; nonlinear regression of initial rate data with L-Arg,459 Units (=μmol/(min·mg))
[Mn+2] [Mn^2+],optimum concentration of the activator,Calf liver arginase [2],0.5 mM
